Reference: patent US7435548B2, “Methods for producing ex vivo models for inflammatory disease and uses thereof” (deCODE genetics ehf., priority 2001, dated 2008)

Legend:
[1] = system: airway smooth muscle (ASM) tissues; test: ASM constrictor responses to acetylcholine (organ bath, isometric tension); assay type: tissue-based, New Zealand White rabbits
Protocol: (§1) After anesthesia with xylazine (10 mg/kg) and ketamine (50 mg/kg), the animals were sacrificed with systemic air embolism.
(§2) After incubation, each airway segment was suspended longitudinally between stainless steel triangular supports in siliconized 20-mL organ baths (Harvard Apparatus, Inc., South Natick, Mass.). […] Care was taken to place the membranous portion of the trachea between the supports to maximize the recorded tension generated by the contracting trachealis muscle. […] Passive resting tension of each tracheal smooth muscle segment was set at 2.0 g after each tissue had been passively stretched to a tension of 8 g to optimize the resting length of each segment. The tissues were allowed to equilibrate in the bath for 45 minutes, at which time each tissue was primed with a 1 minute exposure to 10^−4M acetylcholine (ACh). Cholinergic contractility was initially assessed in the ASM by cumulative administration of ACh in final bath concentrations from 10^−9 to 10^−3M. […] The relaxant responses to isoproterenol were analyzed in terms of percent maximal relaxation (Rmax) from the active cholinergic contraction, and sensitivity to the relaxing agent was determined as the corresponding pD50 value associated with 50% Rmax.

human ASM cells = test: Microarray mRNA expression (Affymetrix HU95GeneFL) in cultured ASM cells; assay type: cell-based
Text: Simultaneous multiple gene mRNA expression was examined in human ASM cells with the Affymetrix expression microarray system using human gene chips (HU95GeneFL array; Affymetrix, Santa Clara, Calif.) representing approximately 6000 genes. The ASM cells were derived from a donor (Clonetics Corp., San Diego, Calif.) who had no evidence of pulmonary disease, and the cells were carefully characterized by the manufacturer with specific markers to confirm their selective smooth muscle phenotype and to exclude contamination with other cell types.
Following incubation of the cells, the total RNA used for the Affymetrix microarray expression analysis was extracted and purified using commercially available reagents and in accordance with methods recommended by the manufacturer (Affymetrix, Santa Clara, Calif.). Briefly, total RNA was extracted using Trizol and purified with Qiagen RNAEASY spin columns (Qiagen GmbH, Germany). Approximately 5 μg of RNA was used for first and second strand cDNA synthesis. After precipitation, the cDNAs were transcribed to cRNAs. The biotinylated cRNA was subsequently hybridized to the Affymetrix gene chips overnight. Non-bound probes were removed by stringency washing. The hybridized chips were developed using a Streptavidin-Phycoerythrin complex and scanned. The scanned images were then analyzed with Affymetrix software and the data was examined using commercially available software programs, including Spotfire Net 5.1 (Spotfire Inc, Mass.).

[2] = system: airway smooth muscle (ASM) tissues; test: ASM relaxant responses to isoproterenol after half-maximal ACh contraction (organ bath); assay type: tissue-based, New Zealand White rabbits; conditions: control ASM
Protocol: as §1, §2

[3] = control ASM (medium alone), mean±SE

CC(=O)OCC[N+](C)(C)C [ACh, acetylcholine]
maximal isometric force of contraction (Tmax) to ACh [1, 3]: 93.7±8.9 g/g ASM weight
pD50 (−log ED50) for ACh [1, 3]: 4.66±0.12 −logM

C[C@@H]1C[C@H]2[C@@H]3CCC4=CC(=O)C=C[C@]4(C)[C@@]3(F)[C@@H](O)C[C@]2(C)[C@@]1(O)C(=O)CO [DEX, dexamethasone]
MER, ABCB2 (human ASM cells; ATP-binding cassette, ABCB2/X57522, IL-1β/TNFα, presence or absence of DEX 10^−5M): 1.75
MER, AMPD3 (human ASM cells; Adenosine monophosphate deaminase, AMPD3/D12775, IL-1β/TNFα, presence versus absence of DEX 10^−5M): 0.82
MER, BCL2A1 (human ASM cells; BCL2-related protein A1, BCL2A1/U29680, IL-1β/TNFα, presence versus absence of DEX 10^−5M): 0.41
MER, BKR2 (human ASM cells; Bradykinin receptor-2, BKR2/X86163, IL-1β/TNFα, presence versus absence of DEX 10^−5M): 0.62
MER, CD83 (human ASM cells; CD83, CD83/Z11697, IL-1β/TNFα, presence versus absence of DEX 10^−5M): 0.56
MER, CKS2 (human ASM cells; CDC28 protein kinase-2, CKS2/X54942, IL-1β/TNFα, presence versus absence of DEX 10^−5M): 0.80
MER, CEBPD (human ASM cells; Enhancer binding protein, CEBPD/M83667, IL-1β/TNFα, presence or absence of DEX 10^−5M): 1.48
MER, FGF2 (human ASM cells; Fibroblast growth factor-2, FGF2/J04513, IL-1β/TNFα, presence versus absence of DEX 10^−5M): 0.69
MER, GBP1 (human ASM cells; Guanylate binding protein-1, GBP1/M55542, IL-1β/TNFα, presence or absence of DEX 10^−5M): 1.22
MER, HSD11B1 (human ASM cells; Hydroxysteroid (11-β) dehydrogenase-1, HSD11B1/M7665, IL-1β/TNFα, presence or absence of DEX 10^−5M): 2.57
MER, INHBA (human ASM cells; Inhibin, INHBA/X57579, IL-1β/TNFα, presence versus absence of DEX 10^−5M): 0.00
MER, ICAM-1 (human ASM cells; Intercellular adhesion molecule-1, ICAM-1/M24283, mRNA elicited by IL-1β/TNFα in presence versus absence of DEX 10^−5M): 0.66
MER, IL-6 (human ASM cells; Interleukin-6, IL-6/X04602, IL-1β/TNFα, presence versus absence of DEX 10^−5M): 0.89
MER, IL-8 (human ASM cells; Interleukin-8, IL-8/M28130, IL-1β/TNFα, presence versus absence of DEX 10^−5M): 0.57
MER, Interleukin-13 receptor-α (human ASM cells; Interleukin-13 receptor-α, IL-1 RA2/U70981, IL-1β/TNFα, presence versus absence of DEX 10^−5M): 0.00
MER, KIAA0247 (human ASM cells; KIAA0247 gene product, KIAA0247/D87434, IL-1β/TNFα, presence or absence of DEX 10^−5M): 1.3
MER, MMP3 (human ASM cells; Matrix metalloproteinase-3, MMP3/X05232, IL-1β/TNFα, presence versus absence of DEX 10^−5M): 0.70
MER, MMP10 (human ASM cells; Matrix metalloproteinase-10, MMP10/X07820, IL-1β/TNFα, presence versus absence of DEX 10^−5M): 0.00
MER, MMP12 (human ASM cells; Matrix metalloproteinase-12, MMP12/L23808, IL-1β/TNFα, presence versus absence of DEX 10^−5M): 0.20
MER, MAP3K5 (human ASM cells; Mitogen-activated protein kinase kinase kinase-5, MAP3K5/U67156, IL-1β/TNFα, presence or absence of DEX 10^−5M): 1.65
MER, MDCP (human ASM cells; Monocyte-derived chemotactic protein, MDCP/HG4069, IL-1β/TNFα, presence versus absence of DEX 10^−5M): 0.29
MER, NAF1 (human ASM cells; Nef-associated factor 1, NAF1/D30755, IL-1β/TNFα, presence versus absence of DEX 10^−5M): 0.88
MER, NINJ1 (human ASM cells; Ninjurin-1, NINJ1/U72661, IL-1β/TNFα, presence versus absence of DEX 10^−5M): 0.59
MER, NFATC1 (human ASM cells; Nuclear factor of activated T cells-C1, NFATC1/U08015, IL-1β/TNFα, presence versus absence of DEX 10^−5M): 0.61
MER, NFKB1 (human ASM cells; Nuclear factor of kappa light polypeptide, NFKB1/M58603, IL-1β/TNFα, presence versus absence of DEX 10^−5M): 0.87
MER, NR4A3 (human ASM cells; Nuclear receptor subfamily 4, NR4A3/U12767, IL-1β/TNFα, presence versus absence of DEX 10^−5M): 0.54
MER, PTX3 (human ASM cells; PTX3 promoter, PTX3/X97748, IL-1β/TNFα, presence versus absence of DEX 10^−5M): 0.69
MER, PDE4B (human ASM cells; Phosphodiesterase-4B, PDE4B/L20971, IL-1β/TNFα, presence versus absence of DEX 10^−5M): 0.40
MER, ATP2B1 (human ASM cells; Plasma membrane Ca^2+ ATPase, ATP2B1/J04027, IL-1β/TNFα, presence versus absence of DEX 10^−5M): 0.34
MER, PBEF (human ASM cells; Pre-B cell colony-enhancing factor, PBEF/U02020, IL-1β/TNFα, presence versus absence of DEX 10^−5M): 0.73
MER, G0S2 (human ASM cells; Putative lymphocyte G0/G1 switch gene, G0S2/M72885, IL-1β/TNFα, presence versus absence of DEX 10^−5M): 0.65
MER, RANTES (human ASM cells; RANTES, RANTES/M21121, IL-1β/TNFα, presence versus absence of DEX 10^−5M): 0.67
MER, STAT5A (human ASM cells; Signal transducer/activator of transcription 5, STAT5A/U43185, IL-1β/TNFα, presence versus absence of DEX 10^−5M): 0.87
MER, SCYA7 (human ASM cells; Small inducible cytokine subfamily A7, SCYA7/X72308, IL-1β/TNFα, presence versus absence of DEX 10^−5M): 0.50
MER, SCYB2 (human ASM cells; Small inducible cytokine subfamily B2, SCYB2/M57731, IL-1β/TNFα, presence versus absence of DEX 10^−5M): 0.52
MER, SCYB3 (human ASM cells; Small inducible cytokine subfamily B3, SCYB3/X53800, IL-1β/TNFα, presence versus absence of DEX 10^−5M): 0.83
MER, SCYB6 (human ASM cells; Small inducible cytokine subfamily B6, SCYB6/U83303, IL-1β/TNFα, presence versus absence of DEX 10^−5M): 0.61
MER, SCYB10 (human ASM cells; Small inducible cytokine subfamily B10, SCYB10/X02530, IL-1β/TNFα, presence or absence of DEX 10^−5M): 1.12
MER, SCYB5 (human ASM cells; Small inducible subfamily B5, SCYB5/L37036, IL-1β/TNFα, presence or absence of DEX 10^−5M): 1.75
MER, SOD2 (human ASM cells; Superoxide dismutase-2, SOD2/X07834, IL-1β/TNFα, presence versus absence of DEX 10^−5M): 0.89
MER, Tenascin C (human ASM cells; Tenascin C, HXB/X78565, IL-1β/TNFα, presence or absence of DEX 10^−5M): 1.21
MER, TNF-αIP3 (human ASM cells; Tumor necrosis factor-α-induced protein 3, TNF-αIP3/M59465, IL-1β/TNFα, presence or absence of DEX 10^−5M): 1.21
MER, TNF-αIP6 (human ASM cells; Tumor necrosis factor-α-induced protein 6, TNF-αIP6/M31165, IL-1β/TNFα, presence or absence of DEX 10^−5M): 1.11
MER, uPA (human ASM cells; Urokinase plasminogen activator, uPA/X02419, IL-1β/TNFα, presence versus absence of DEX 10^−5M): 0.00
inhibition of IL-1β/TNFα induced mRNA expression, p50-NF-kB gene (human ASM cells; in the presence of DEX 10^−5M): 51%
inhibition of IL-1β/TNFα induced mRNA expression, phosphodiesterase D4 gene (human ASM cells; in the presence of DEX 10^−5M): 60%
inhibition of IL-1β/TNFα induced mRNA expression, plasma membrane Ca^2+ ATPase gene (human ASM cells; in the presence of DEX 10^−5M): 66%
MER, pro-Interleukin-1β (human ASM cells; pro-Interleukin-1β, IL-1β/X04500, IL-1β/TNFα, presence versus absence of DEX 10^−5M): 0.45
effect on constrictor responses to ACh in control tissues ([1]; DEX 10^−5M alone): no effect
Tmax to ACh ([1]; IL-1β/TNFα exposed ASM pre-treated 1 hour with DEX 10^−5M, mean±SE): 102.9±13.1 g/g ASM weight

CC(C)NCC(O)c1ccc(O)c(O)c1 (stereo not drawn) [isoproterenol]
EC50 ([2]; Oryctolagus cuniculus, read-out: pD50 for isoproterenol (converted)): 0.813 µM
maximal relaxation (Rmax) to isoproterenol [2]: 57.7±7.1%
